Results reported in patent US20240034753A1, “THERAPEUTIC PEPTIDES” (COHBAR, INC., priority 2020, published 2024).
Square brackets hold non-standard residues; d marks the D form. Ends that are not written are not given here. Peptide text beside a SMILES is read from it. Nle = CCCC[C@H](N)C(=O)O

Tests used:
[1] = system: A172 human brain glioblastoma cell line; assay: Caspase-Glo 3/7 assay of caspase 3/7 activity in cultured cells; assay type: cell-based; details: peptide 10 μM, 18-20 hours, relative to 0.1% DMSO control
Experimental: The effect of the peptides on cell death/survival can be assessed using a […] assay in cultured cells. Peptides were dissolved at 10 mM in DMSO as stock solutions for use at a final concentration of 10 μM. […] Caspase-Glo 3/7 Assay Reagent was purchased from Promega (Madison, WI). A172 human brain glioblastoma cell line was purchased from American Type Culture Collection (Manassas, VA). A172 cells were grown in DMEM supplemented with 10% FBS with 100 IU/ml penicillin and 100 μg/ml streptomycin. Cultures were maintained at 37° C. in a humidified atmosphere of 5% CO2/95% air. A172 cells were seeded at 8,000 cells per well on 96-well plates. […] Caspase 3/7 activity was determined using a Caspase-Glo 3/7 Assay kit (Promega) according to the manufacturer's instructions. Luminescence for each sample well on the plate was measured using a Cytation 3 plate reader (BioTek, Winooski, VT). Activity was calculated relative to 0.1% DMSO control.

C2C12 Mouse Myoblasts = assay: Glucose utilization (glucose remaining in medium); assay type: cell-based; details: peptide 10 μM, 18-22 hours, relative to 0.1% DMSO treated control cells
Experimental: The effect of the peptides on glucose metabolism can be assessed using an assay of glucose utilization in cultured cells such as mouse myoblasts. Peptides were initially prepared as 10 mM stock in DMSO and used at a final concentration of 10 μM (0.1% DMSO). C2C12 mouse myoblast cell line was purchased from American Type Culture Collection (Manassas, VA). C2C12 cultures were maintained at 37° C. in a humidified atmosphere of 5% CO2/95% air with medium changes every second day. C2C12 cells were grown in DMEM (1 g/L glucose) supplemented with 10% FBS with 100 IU/ml penicillin and 100 μg/ml streptomycin. C2C12 cells were seeded at 7,000 cells per well on 96-well plates and cultured to confluence. Once the cell reached confluence the media was changed to DMEM (1 g/L glucose) supplemented with 2% HS with 100 IU/ml penicillin and 100 μg/ml streptomycin and maintained at 37° C. in a humidified atmosphere of 5% CO2/95% air. 5 days post-induction of differentiation fresh DMEM (1 g/L glucose) supplemented with 2% HS with 100 IU/ml penicillin and 100 μg/ml streptomycin was added to cultures. Cells were maintained at 37° C. in a humidified atmosphere of 5% CO2 and 95% air for 5 hours. After 5 hours test peptides at 10 μM or controls (0.5 mM or 1 mM metformin in 1% DMSO) prepared in fresh differentiation medium were added to cells and the cultures were maintained at 37° C. in a humidified atmosphere of 5% CO2/95% air for 18-22 hours. At the end of the incubation culture media was removed from the cells and the remaining glucose concentration was measured using a Glucose Assay kit (Abcam) according to the manufacturer's instructions, using a Cytation 3 plate reader at 570 nm (BioTek, Winooski, VT). Glucose concentrations in the medium were calculated relative to 0.1% DMSO treated control cells. The relative standard deviation of the result for the 0.1% DMSO treated control was <20%. Metformin was used as a positive control for reduction of glucose levels (increased glucose utilization glucose levels for treatment with metformin (1 mM) treatment were <20% of the 0.1% DMSO treated control value. The results are reported in Table 11.

In the case of MAGVIRGVLVL [compound 8], the “Caspase 3/7 Activity, Percent of Control Activity” value (shortened to “Caspase 3/7 Activity, Percent”) [1] was 86.7% and the “Glucose Utilization (glucose concentration in medium), Percent of Untreated Control” value (C2C12 Mouse Myoblasts) was 115.0%.

With MLLILTLVLL [compound 2] the “Caspase 3/7 Activity, Percent” value [1] was 86.6% and the “Glucose Utilization (glucose concentration in medium), Percent of Untreated Control” value (C2C12 Mouse Myoblasts) was 113.5%.

With `CC[C@H](C)[C@H](NC(=O)[C@H](CC(C)C)NC(=O)[C@H](C)NC(=O)[C@@H](N)CCSC)C(=O)N[C@@H](CC(C)C)C(=O)N[C@H](C(=O)N[C@@H](CC(C)C)C(=O)N[C@H](C(=O)N[C@@H](CC(C)C)C(=O)N[C@H](C)C(=O)O)C(C)C)[C@@H](C)O` [compound 4] (H-MALILTLVL[dA]-OH; N-terminus and C-terminus assumed) the “Caspase 3/7 Activity, Percent” value [1] was 96.4% and the “Glucose Utilization (glucose concentration in medium), Percent of Untreated Control” value (C2C12 Mouse Myoblasts) was 117.2%.

For RRRMFSCYLY [compound 18], the “Caspase 3/7 Activity, Percent” value [1] was 95.7% and the “Glucose Utilization (glucose concentration in medium), Percent of Untreated Control” value (C2C12 Mouse Myoblasts) was 124.0%.

`CC[C@H](C)[C@H](NC(=O)[C@@H](NC(=O)[C@H](Cc1c[nH]cn1)NC(=O)[C@H](CCCNC(=N)N)NC(=O)[C@H](CC(=O)O)NC(=O)[C@H](Cc1ccc(O)cc1)NC(=O)[C@H](CC(C)C)NC(=O)[C@H](CC(C)C)NC(=O)[C@@H](NC(=O)[C@@H](N)Cc1c[nH]c2ccccc12)C(C)C)C(C)C)C(=O)NCC(=O)NCC(=O)N[C@@H](CO)C(=O)N[C@@H](CC(C)C)C(=O)N[C@@H](CS)C(=O)N[C@H](C(=O)N[C@H](C(=O)N[C@H](C(=O)N[C@@H](CCC(N)=O)C(=O)N[C@H](C(=O)N[C@@H](CCC(=O)O)C(=O)N[C@H](C)C(=O)N[C@@H](Cc1ccc(O)cc1)C(=O)O)C(C)C)C(C)C)C(C)C)C(C)C` [compound 23] (H-WVLLYDRHVIGGSLCVVVQVE[dA]Y-OH; N-terminus and C-terminus assumed) was tested, and the “Caspase 3/7 Activity, Percent” value [1] was 104.3% and the “Glucose Utilization (glucose concentration in medium), Percent of Untreated Control” value (C2C12 Mouse Myoblasts) was 109.6%.

For `CC[C@H](C)[C@H](NC(=O)[C@@H](NC(=O)[C@H](Cc1c[nH]cn1)NC(=O)[C@H](CCCNC(=N)N)NC(=O)[C@H](CC(=O)O)NC(=O)[C@H](Cc1ccc(O)cc1)NC(=O)[C@H](CC(C)C)NC(=O)[C@H](CC(C)C)NC(=O)[C@@H](NC(=O)[C@@H](N)Cc1c[nH]c2ccccc12)C(C)C)C(C)C)C(=O)NCC(=O)NCC(=O)N[C@@H](CO)C(=O)N[C@@H](CC(C)C)C(=O)N[C@@H](CS)C(=O)N[C@H](C(=O)N[C@@H](CCC(N)=O)C(=O)N[C@H](C(=O)N[C@@H](CCC(N)=O)C(=O)N[C@H](C(=O)N[C@@H](CCC(=O)O)C(=O)N[C@H](C)C(=O)O)C(C)C)C(C)C)C(C)C` [compound 25] (H-WVLLYDRHVIGGSLCVQVQVE[dA]-OH; N-terminus and C-terminus assumed), the “Caspase 3/7 Activity, Percent” value [1] was 108.8% and the “Glucose Utilization (glucose concentration in medium), Percent of Untreated Control” value (C2C12 Mouse Myoblasts) was 107.2%.

With `CC[C@H](C)[C@H](NC(=O)[C@H](CC(C)C)NC(=O)[C@H](C)NC(=O)[C@@H](N)CCSC)C(=O)N[C@@H](CC(=O)O)C(=O)N[C@H](C(=O)N[C@@H](CC(C)C)C(=O)N[C@H](C(=O)N[C@@H](CC(C)C)C(=O)N[C@H](C)C(=O)O)C(C)C)[C@@H](C)O` [compound 5] (H-MALIDTLVL[dA]-OH; N-terminus and C-terminus assumed) the “Caspase 3/7 Activity, Percent” value [1] was 76.2% and the “Glucose Utilization (glucose concentration in medium), Percent of Untreated Control” value (C2C12 Mouse Myoblasts) was 128.8%.

In the case of `CC[C@H](C)[C@H](NC(=O)[C@@H](NC(=O)[C@H](Cc1c[nH]cn1)NC(=O)[C@H](CCCNC(=N)N)NC(=O)[C@H](CC(=O)O)NC(=O)[C@H](Cc1ccc(O)cc1)NC(=O)[C@H](CC(C)C)NC(=O)[C@H](CC(C)C)NC(=O)[C@@H](NC(=O)[C@@H](N)Cc1c[nH]c2ccccc12)C(C)C)C(C)C)C(=O)NCC(=O)NCC(=O)N[C@@H](CO)C(=O)N[C@@H](CC(C)C)C(=O)N[C@@H](CS)C(=O)N[C@H](C(=O)N[C@H](C(=O)N[C@H](C(=O)N[C@@H](CCC(N)=O)C(=O)N[C@H](C(=O)N[C@@H](CCC(=O)O)C(=O)N[C@H](C)C(=O)O)C(C)C)C(C)C)C(C)C)C(C)C` [compound 24] (H-WVLLYDRHVIGGSLCVVVQVE[dA]-OH; N-terminus and C-terminus assumed), the “Caspase 3/7 Activity, Percent” value [1] was 108.8% and the “Glucose Utilization (glucose concentration in medium), Percent of Untreated Control” value (C2C12 Mouse Myoblasts) was 109.1%.

MRRRMFSCYLY [compound 17] was tested, and the “Caspase 3/7 Activity, Percent” value [1] was 91.3% and the “Glucose Utilization (glucose concentration in medium), Percent of Untreated Control” value (C2C12 Mouse Myoblasts) was 121.7%.

For GWVLLYDRHVIGGSLCVVVQVEAY [compound 22], the “Caspase 3/7 Activity, Percent” value [1] was 105.0% and the “Glucose Utilization (glucose concentration in medium), Percent of Untreated Control” value (C2C12 Mouse Myoblasts) was 70.4%.

With MRQWILHNGGMSFFC [compound 12] the “Caspase 3/7 Activity, Percent” value [1] was 109.7% and the “Glucose Utilization (glucose concentration in medium), Percent of Untreated Control” value (C2C12 Mouse Myoblasts) was 113.6%.

In the case of `CCCC[C@H](NC(=O)[C@H](CCCNC(=N)N)NC(=O)[C@H](CCCNC(=N)N)NC(=O)[C@@H](N)CCCNC(=N)N)C(=O)N[C@@H](Cc1ccccc1)C(=O)N[C@@H](CO)C(=O)N[C@@H](CS)C(=O)N[C@@H](Cc1ccc(O)cc1)C(=O)N[C@H](C)C(=O)N[C@@H](Cc1ccc(O)cc1)C(=O)O` [compound 20] (H-RRR[Nle]FSCY[dA]Y-OH; N-terminus and C-terminus assumed), the “Caspase 3/7 Activity, Percent” value [1] was 85.4% and the “Glucose Utilization (glucose concentration in medium), Percent of Untreated Control” value (C2C12 Mouse Myoblasts) was 113.2%.

In the case of `CSCC[C@H](NC(=O)[C@H](CCCNC(=N)N)NC(=O)[C@H](CCCNC(=N)N)NC(=O)[C@@H](N)CCCNC(=N)N)C(=O)N[C@@H](Cc1ccccc1)C(=O)N[C@@H](CO)C(=O)N[C@@H](CS)C(=O)N[C@@H](Cc1ccc(O)cc1)C(=O)N[C@H](C)C(=O)N[C@@H](Cc1ccc(O)cc1)C(=O)O` [compound 19] (H-RRRMFSCY[dA]Y-OH; N-terminus and C-terminus assumed), the “Caspase 3/7 Activity, Percent” value [1] was 93.7% and the “Glucose Utilization (glucose concentration in medium), Percent of Untreated Control” value (C2C12 Mouse Myoblasts) was 115.7%.

In the case of MMAGVIRGVLVL [compound 7], the “Caspase 3/7 Activity, Percent” value [1] was 84.6% and the “Glucose Utilization (glucose concentration in medium), Percent of Untreated Control” value (C2C12 Mouse Myoblasts) was 128.3%.

With `CC[C@H](C)[C@H](NC(=O)[C@@H](NC(=O)CNC(=O)[C@@H](C)NC(=O)[C@@H](N)CCSC)C(C)C)C(=O)N[C@@H](CCCNC(=N)N)C(=O)NCC(=O)N[C@H](C(=O)N[C@@H](CC(C)C)C(=O)N[C@H](C(=O)N[C@@H](CC(C)C)C(=O)O)C(C)C)C(C)C` [compound 9] (H-M[dA]GVIRGVLVL-OH; N-terminus and C-terminus assumed) the “Caspase 3/7 Activity, Percent” value [1] was 89.3% and the “Glucose Utilization (glucose concentration in medium), Percent of Untreated Control” value (C2C12 Mouse Myoblasts) was 128.4%.

RQWILHNGGMSFFC [compound 13] was tested, and the “Caspase 3/7 Activity, Percent” value [1] was 115.8% and the “Glucose Utilization (glucose concentration in medium), Percent of Untreated Control” value (C2C12 Mouse Myoblasts) was 115.0%.

For `CC[C@H](C)[C@H](NC(=O)[C@@H](NC(=O)CNC(=O)[C@@H](C)NC(=O)[C@@H](N)CCSC)C(C)C)C(=O)N[C@@H](CCCNC(=N)N)C(=O)N[C@@H](C)C(=O)N[C@H](C(=O)N[C@@H](CC(C)C)C(=O)N[C@H](C(=O)N[C@@H](CC(C)C)C(=O)O)C(C)C)C(C)C` [compound 10] (H-M[dA]GVIRAVLVL-OH; N-terminus and C-terminus assumed), the “Caspase 3/7 Activity, Percent” value [1] was 82.6% and the “Glucose Utilization (glucose concentration in medium), Percent of Untreated Control” value (C2C12 Mouse Myoblasts) was 109.1%.

In the case of `CC[C@H](C)[C@H](NC(=O)[C@H](CC(C)C)NC(=O)[C@H](CC(C)C)NC(=O)[C@@H](N)CCSC)C(=O)N[C@@H](CC(C)C)C(=O)N[C@H](C(=O)N[C@@H](CC(C)C)C(=O)N[C@H](C(=O)N[C@@H](CC(C)C)C(=O)N[C@H](C)C(=O)O)C(C)C)[C@@H](C)O` [compound 3] (H-MLLILTLVL[dA]-OH; N-terminus and C-terminus assumed), the “Caspase 3/7 Activity, Percent” value [1] was 90.9% and the “Glucose Utilization (glucose concentration in medium), Percent of Untreated Control” value (C2C12 Mouse Myoblasts) was 105.2%.
